Laboratory results published in patent US10751318B2, “Pharmaceutical co-crystal and use thereof” (SYN-NAT PRODUCTS ENTERPRISE LLC, priority 2015, dated 2020).
Where “and” joins values, the source holds several entries; their conditions need not be identical. Equal entries are not always repeated. Where two headings read alike, the source gives them in different places.

Legend:
[1] = test system: fetal hepatocytes HL-7002; assay: MTS cell viability assay, HL-7002 (kidney cancer study; controls carboplatin, 5-FU); settings: for IC50: read-out: IC50 in HL-7002 cells
[2] = test system: A498 kidney cancer cell line; assay: MTS cell viability assay, A498 kidney cancer cells; format: cell-based
[3] = test system: ACHN kidney cancer cell line; assay: MTS cell viability assay, ACHN kidney cancer cells; format: cell-based; settings: read-out: IC50 to reduce ACHN cell number
[4] = test system: human embryonic kidney cell line HEK293; assay: MTS cell viability assay, HEK293 (kidney cancer study; controls carboplatin, 5-FU)
[5] = test system: human embryonic kidney cell line HEK293; assay: MTS cell viability assay, HEK293 (prostate cancer study; controls docetaxel, cisplatin); settings: for toxicity to HEK293 cells: study with docetaxel and cisplatin (FIG. 4)
[6] = test system: fetal hepatocytes HL-7002; assay: MTS cell viability assay, HL-7002 (prostate cancer study; controls docetaxel, cisplatin); settings: for IC50: read-out: IC50 to reduce HL-7002 cell number
[7] = test system: LNCaP prostate cancer cell line; assay: MTS cell viability assay, LNCaP prostate cancer cells; format: cell-based, human; settings: 0.01 to 300 μM, read-out: IC50 to reduce LNCaP cell number
[8] = test system: HBeAg secreted by HepG2.2.15 cells; assay: HBeAg secreted by HepG2.2.15 cells (ELISA); format: cell-based, hepatitis B virus; settings: 3d
Source text: (§1) The levels of HbsAg and HbeAg in chemical-treated HepG2.2.15 cells were detected by enzyme-linked immunosorbent assay (ELISA).

[9] = test system: HBsAg secreted by HepG2.2.15 cells; assay: HBsAg secreted by HepG2.2.15 cells (ELISA); format: cell-based, hepatitis B virus; settings: 3d
Source text: as §1

[10] = test system: PC-3 prostate cancer cell line; assay: MTS cell viability assay, PC-3 prostate cancer cells; format: cell-based, human; settings: PC-3 cells, 0.01 to 300 μM, read-out: IC50 to reduce PC-3 cell number
[11] = HL-7002 cells, similar conditions
[12] = HL-7002 cells, study with carboplatin and 5-FU (FIG. 7)
[13] = A498 cells, MTS, 0.01 to 300 uM, read-out: IC50 to reduce A498 cell number
[14] = HL-7002 cells, study with docetaxel and cisplatin (FIG. 3)
[15] = ACHN cells, MTS, 0.01 to 300 uM
[16] = HEK293 cells, similar conditions
[17] = read-out: IC50 in HEK293 cells, HEK293 cells, study with carboplatin and 5-FU (FIG. 8)

## O=c1[nH]cc(F)c(=O)[nH]1 [5-FU, fluorouracil, reference compound]
[1]; Homo sapiens, Hepatocyte
  IC50: 45 µM
[2]; Homo sapiens, A498, read-out: IC50 to reduce A498 cell number
  IC50: 18.2 µM
[3]; Homo sapiens, ACHN
  IC50: 6.45 µM
[4]; Homo sapiens, HEK293, read-out: IC50 in HEK293 cells
  IC50: 356 µM

## CC(=O)O[C@@]12CO[C@@H]1C[C@H](O)[C@@]1(C)C(=O)[C@H](O)C3=C(C)[C@@H](OC(=O)[C@H](O)[C@@H](NC(=O)OC(C)(C)C)c4ccccc4)C[C@@](O)([C@@H](OC(=O)c4ccccc4)[C@H]21)C3(C)C [docetaxel, reference compound]
[5]
  toxicity to HEK293 cells: strong toxicity
[6]; Homo sapiens, Hepatocyte
  IC50: 0.095 µM

## carboplatin cis-cyclobutane-1,2-dicarboxylic acid co-crystal [CBCBP]
[7]
  IC50: ~19.6 µM
[8]; 3.125 μg/mL
  inhibition rate HbeAg: 0.6%
[8]; 6.25 μg/mL
  inhibition rate HbeAg: 25.0%
[8]; 12.5 μg/mL
  inhibition rate HbeAg: 25.3%
[8]; 25 μg/mL
  inhibition rate HbeAg: 28.5%
Water solubility
  water solubility: ~30 mg/mL
[9]; 3.125 μg/mL
  inhibition rate HbsAg: 19.5%
[9]; 6.25 μg/mL
  inhibition rate HbsAg: 23.6%
[9]; 12.5 μg/mL
  inhibition rate HbsAg: 37.3%
[9]; 25 μg/mL
  inhibition rate HbsAg: 48.5%
[1]; [11]
  toxicity of CBCBP relative to 5-FU: about ⅛
  toxicity of CBCBP relative to carboplatin: about 1/10
[1]; [12]
  IC50: 351 µM and ~351 µM
[2]; [13]
  IC50: ~18.4 µM and 18.4 µM
[5]
  toxicity to HEK293 cells: no toxicity
[6]; [11]
  toxicity of CBCBP relative to cisplatin: about 1/10
  toxicity of CBCBP relative to docetaxel: about 1/216
[6]; [14]
  IC50: ~20.5 µM and 20.5 µM
[10]
  IC50: ~17.6 µM and 17.6 µM
[3]; [15]
  IC50: 11.6 µM and ~11.6 µM
[4]; [16]
  toxicity of CBCBP relative to 5-FU: about ¼
  toxicity of CBCBP relative to carboplatin: about ⅕
[4]; [17]
  IC50: 1200 µM and ~1200 µM

## N.N.[Cl][Pt][Cl] [cisplatin, reference compound]
[7]
  IC50: 2.25 µM
[5]; read-out: IC50 in HEK293 cells, study with docetaxel and cisplatin (FIG. 4)
  IC50: 6.9 µM
[6]; [14]
  IC50: 2.01 µM
[10]
  IC50: 2.49 µM

## N.N.O=C([O-])C1(C(=O)[O-])CCC1.[Pt+2] [carboplatin, reference compound]
Water solubility
  water solubility: 18 mg/mL
[1]; [12]
  IC50: 34 µM
[2]; [13]
  IC50: 14.7 µM
[3]; [15]
  IC50: 11 µM
[4]; [17]
  IC50: 237 µM
